Key:
Assay in all cases: Histone peptide microarray
Assay type in all cases: binding, human
CHD5 (PPCC) = conditions: GST-tagged CHD5 (PPCC = Dual PHD + Dual Chromodomain); histone peptide array; arrays performed twice, n of 4
Procedure, shortened: (§1)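 Readout is array binding signal, reported as the mean and standard deviation over four replicates. Each purified GST-fused PHD domain was incubated at 0.5 μM with a library of 293 modified histone peptides.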

TAF3 = conditions: GST-tagged TAF3; histone peptide array; arrays performed twice, n of 4
Procedure, shortened: as §1

TRIM66 (PB) = conditions: GST-tagged TRIM66 (PB = PHD + Bromodomain); histone peptide array; arrays performed twice, n of 4
Procedure, shortened: as §1

KDM5A (1) = conditions: GST-tagged KDM5A (1); histone peptide array; arrays performed twice, n of 4
Procedure, shortened: as §1

MLL5 = conditions: GST-tagged MLL5; histone peptide array; arrays performed twice, n of 4
Procedure, shortened: as §1

KDM5B (1) = conditions: GST-tagged KDM5B (1); histone peptide array; arrays performed twice, n of 4
Procedure, shortened: as §1

ING3 = conditions: GST-tagged ING3; histone peptide array; arrays performed twice, n of 4
Procedure, shortened: as §1

PHF23 = conditions: GST-tagged PHF23; histone peptide array; arrays performed twice, n of 4
Procedure, shortened: as §1

ING5 = conditions: GST-tagged ING5; histone peptide array; arrays performed twice, n of 4
Procedure, shortened: as §1

MORC3 (CW) = conditions: GST-tagged MORC3 (CW = CW-type Zn-finger); histone peptide array; arrays performed twice, n of 4
Procedure, shortened: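 GST-PHD reader, 0.5 μM, probed on 293-peptide histone array (single/combinatorial PTMs); optimized array protocol; signal = mean ± SD, n = 4.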

PHF13 = conditions: GST-tagged PHF13; histone peptide array; arrays performed twice, n of 4
Procedure, shortened: as §1

PHF2 = conditions: GST-tagged PHF2; histone peptide array; arrays performed twice, n of 4
Procedure, shortened: as §1

DIDO1 = conditions: GST-tagged DIDO1; histone peptide array; arrays performed twice, n of 4
Procedure, shortened: as §1

KDM4C (TTP) = conditions: GST-tagged KDM4C (TTP = Tandem Tudor domain + PHD); histone peptide array; arrays performed twice, n of 4
Procedure, shortened: as §1

PHF8 = conditions: GST-tagged PHF8; histone peptide array; arrays performed twice, n of 4
Procedure, shortened: as §1

CHD5 (PCC) = conditions: GST-tagged CHD5 (PCC = PHD + Dual Chromodomain); histone peptide array; arrays performed twice, n of 4
Procedure, shortened: as §1

BPTF (PB) = conditions: GST-tagged BPTF (PB = PHD + Bromodomain); histone peptide array; arrays performed twice, n of 4
Procedure, shortened: as §1

KDM7A = conditions: GST-tagged KDM7A; histone peptide array; arrays performed twice, n of 4
Procedure, shortened: as §1

KDM5A (3) = conditions: GST-tagged KDM5A (3); histone peptide array; arrays performed twice, n of 4
Procedure, shortened: as §1

PHRF1 (RP) = conditions: GST-tagged PHRF1 (RP); histone peptide array; arrays performed twice, n of 4
Procedure, shortened: as §1

KDM5B (3) = conditions: GST-tagged KDM5B (3); histone peptide array; arrays performed twice, n of 4
Procedure, shortened: as §1

RAG2 = conditions: GST-tagged RAG2; histone peptide array; arrays performed twice, n of 4
Procedure, shortened: as §1

ING2 = conditions: GST-tagged ING2; histone peptide array; arrays performed twice, n of 4
Procedure, shortened: as §1

AIRE (PP) = conditions: GST-tagged AIRE (PP); histone peptide array; arrays performed twice, n of 4
Procedure, shortened: as §1

DPF2 (PPC2W2) = conditions: GST-tagged DPF2 (PPC2W2 = Dual PHD + C2W2-type Zn-finger); histone peptide array; arrays performed twice, n of 4
Procedure, shortened: as §1

ING1 = conditions: GST-tagged ING1; histone peptide array; arrays performed twice, n of 4
Procedure, shortened: as §1

CHD4 (PPCC) = conditions: GST-tagged CHD4 (PPCC = Dual PHD + Dual Chromodomain); histone peptide array; arrays performed twice, n of 4
Procedure, shortened: as §1

BAZ2B = conditions: GST-tagged BAZ2B; histone peptide array; arrays performed twice, n of 4
Procedure, shortened: as §1

PHF21A = conditions: GST-tagged PHF21A; histone peptide array; arrays performed twice, n of 4
Procedure, shortened: as §1

SP140L = conditions: GST-tagged SP140L; histone peptide array; arrays performed twice, n of 4
Procedure, shortened: as §1

ING4 = conditions: GST-tagged ING4; histone peptide array; arrays performed twice, n of 4
Procedure, shortened: as §1

H4R3me2s: H4 1-23 [Peptide H4R3me2s]
Array Heatmap signal, CHD5 (PPCC) (CHD5 (PPCC)): 0.5547 | Array Heatmap signal, TAF3 (TAF3): 0.3502 | Array Heatmap signal, TRIM66 (PB) (TRIM66 (PB)): 0.614 | Array Heatmap signal, KDM5A (1) (KDM5A (1)): 0.4765 | Array Heatmap signal, MLL5 (MLL5): 0.6336 | Array Heatmap signal, KDM5B (1) (KDM5B (1)): 0.7045 | Array Heatmap signal, ING3 (ING3): 0.498 | Array Heatmap signal, PHF23 (PHF23): 0.6199 | Array Heatmap signal, ING5 (ING5): 0.3741 | Array Heatmap signal, MORC3 (CW) (MORC3 (CW)): 0.4671 | Array Heatmap signal, PHF13 (PHF13): 0.6145 | Array Heatmap signal, PHF2 (PHF2): 0.5067 | Array Heatmap signal, DIDO1 (DIDO1): 0.7583 | Array Heatmap signal, KDM4C (TTP) (KDM4C (TTP)): 0.5129 | Array Heatmap signal, PHF8 (PHF8): 0.4581 | Array Heatmap signal, CHD5 (PCC) (CHD5 (PCC)): 0.8078 | Array Heatmap signal, BPTF (PB) (BPTF (PB)): 0.3851 | Array Heatmap signal, KDM7A (KDM7A): 0.4774 | Array Heatmap signal, KDM5A (3) (KDM5A (3)): 0.6488 | Array Heatmap signal, PHRF1 (RP) (PHRF1 (RP)): 0.4693 | Array Heatmap signal, KDM5B (3) (KDM5B (3)): 0.5522 | Array Heatmap signal, RAG2 (RAG2): 0.376 | Array Heatmap signal, ING2 (ING2): 0.6344 | Array Heatmap signal, AIRE (PP) (AIRE (PP)): 0.462 | Array Heatmap signal, DPF2 (PPC2W2) (DPF2 (PPC2W2)): 0.7228 | Array Heatmap signal, ING1 (ING1): 0.5148 | Array Heatmap signal, CHD4 (PPCC) (CHD4 (PPCC)): 0.556 | Array Heatmap signal, BAZ2B (BAZ2B): 0.5351 | Array Heatmap signal, PHF21A (PHF21A): 0.451 | Array Heatmap signal, SP140L (SP140L): 0.3481 | Array Heatmap signal, ING4 (ING4): 0.4621

H4S1p + R3me2a: H4 1-23
Array Heatmap signal, CHD5 (PPCC) (CHD5 (PPCC)): 0.617 | Array Heatmap signal, TAF3 (TAF3): 0.5622 | Array Heatmap signal, TRIM66 (PB) (TRIM66 (PB)): 0.7721 | Array Heatmap signal, KDM5A (1) (KDM5A (1)): 0.5298 | Array Heatmap signal, MLL5 (MLL5): 0.6348 | Array Heatmap signal, KDM5B (1) (KDM5B (1)): 0.7314 | Array Heatmap signal, ING3 (ING3): 0.5499 | Array Heatmap signal, PHF23 (PHF23): 0.6265 | Array Heatmap signal, ING5 (ING5): 0.4163 | Array Heatmap signal, MORC3 (CW) (MORC3 (CW)): 0.5537 | Array Heatmap signal, PHF13 (PHF13): 0.7049 | Array Heatmap signal, PHF2 (PHF2): 0.5511 | Array Heatmap signal, DIDO1 (DIDO1): 0.8161 | Array Heatmap signal, KDM4C (TTP) (KDM4C (TTP)): 0.5709 | Array Heatmap signal, PHF8 (PHF8): 0.44 | Array Heatmap signal, CHD5 (PCC) (CHD5 (PCC)): 0.908 | Array Heatmap signal, BPTF (PB) (BPTF (PB)): 0.4592 | Array Heatmap signal, KDM7A (KDM7A): 0.485 | Array Heatmap signal, KDM5A (3) (KDM5A (3)): 0.5495 | Array Heatmap signal, PHRF1 (RP) (PHRF1 (RP)): 0.5062 | Array Heatmap signal, KDM5B (3) (KDM5B (3)): 0.6926 | Array Heatmap signal, RAG2 (RAG2): 0.4591 | Array Heatmap signal, ING2 (ING2): 0.6378 | Array Heatmap signal, AIRE (PP) (AIRE (PP)): 0.6422 | Array Heatmap signal, DPF2 (PPC2W2) (DPF2 (PPC2W2)): 0.7324 | Array Heatmap signal, ING1 (ING1): 0.5568 | Array Heatmap signal, CHD4 (PPCC) (CHD4 (PPCC)): 0.6213 | Array Heatmap signal, BAZ2B (BAZ2B): 0.5882 | Array Heatmap signal, PHF21A (PHF21A): 0.4964 | Array Heatmap signal, SP140L (SP140L): 0.4294 | Array Heatmap signal, ING4 (ING4): 0.5743

H4S1p + R3me2s: H4 1-23
Array Heatmap signal, CHD5 (PPCC) (CHD5 (PPCC)): 0.6121 | Array Heatmap signal, TAF3 (TAF3): 0.439 | Array Heatmap signal, TRIM66 (PB) (TRIM66 (PB)): 0.8775 | Array Heatmap signal, KDM5A (1) (KDM5A (1)): 0.508 | Array Heatmap signal, MLL5 (MLL5): 0.6789 | Array Heatmap signal, KDM5B (1) (KDM5B (1)): 0.7342 | Array Heatmap signal, ING3 (ING3): 0.5221 | Array Heatmap signal, PHF23 (PHF23): 0.5739 | Array Heatmap signal, ING5 (ING5): 0.4164 | Array Heatmap signal, MORC3 (CW) (MORC3 (CW)): 0.5092 | Array Heatmap signal, PHF13 (PHF13): 0.6986 | Array Heatmap signal, PHF2 (PHF2): 0.514 | Array Heatmap signal, DIDO1 (DIDO1): 0.7409 | Array Heatmap signal, KDM4C (TTP) (KDM4C (TTP)): 0.5709 | Array Heatmap signal, PHF8 (PHF8): 0.4081 | Array Heatmap signal, CHD5 (PCC) (CHD5 (PCC)): 0.9435 | Array Heatmap signal, BPTF (PB) (BPTF (PB)): 0.4125 | Array Heatmap signal, KDM7A (KDM7A): 0.5358 | Array Heatmap signal, KDM5A (3) (KDM5A (3)): 0.5274 | Array Heatmap signal, PHRF1 (RP) (PHRF1 (RP)): 0.4781 | Array Heatmap signal, KDM5B (3) (KDM5B (3)): 0.6247 | Array Heatmap signal, RAG2 (RAG2): 0.4186 | Array Heatmap signal, ING2 (ING2): 0.6427 | Array Heatmap signal, AIRE (PP) (AIRE (PP)): 0.5797 | Array Heatmap signal, DPF2 (PPC2W2) (DPF2 (PPC2W2)): 0.7264 | Array Heatmap signal, ING1 (ING1): 0.5472 | Array Heatmap signal, CHD4 (PPCC) (CHD4 (PPCC)): 0.6243 | Array Heatmap signal, BAZ2B (BAZ2B): 0.546 | Array Heatmap signal, PHF21A (PHF21A): 0.5145 | Array Heatmap signal, SP140L (SP140L): 0.3935 | Array Heatmap signal, ING4 (ING4): 0.5288
